Assay: Reaction rate of fluorescent probe SOSG with 1O2 generated by photosensitizer under light and magnetic field
Format: physicochemical
Conditions: Ce6 and SOSG 10 μmol/L in water, 640 nm LED 5 mW·cm−2
Protocol: (1) The photosensitizer Rose Bengal (RB) (the purity >98%, available from Saen Chemical Technologies (Shanghai) Ltd. Co., branded as Energy Chemical) and singlet oxygen fluorescent probe (SOSG) are dissolved in water (SOSG available from ThermoFisher Scientific (China) Co., Ltd.). In the resulting solution, the photosensitizer and SOSG are both at a concentration of 10 μmol/L. In a magnetic field with certain strength, the solutions are exposed to a 561 nm LED lamp (light emitting diode) at a power of 5 mW·cm^−2 and tested for fluorescence spectra at 0, 15, 30, 45, 60, 90, 120 and 180 seconds of light exposure, respectively, resulting in emission intensity ([…]) versus time (t) curves. The above fluorescence spectroscopy test is performed at a magnetic field strength of 0, 10, 35, 85, 180, 300 mT, respectively (external magnetic field provided by a neodymium iron boron permanent magnet).
(2) The photosensitizer chlorin e6 (Ce6, Chlorin e6) (available from Saen Chemical Technologies (Shanghai) Ltd. Co., branded as Energy Chemical) and singlet oxygen fluorescent probe (SOSG) are dissolved in water, both with a concentration of 10 μmol/L in the resulting solutions. In a magnetic field with certain strength, the solutions are exposed to a 640 nm LED lamp (light emitting diode) at a power of 5 mW·cm^−2 and tested for fluorescence spectra at 0, 15, 30, 45, 60, 90, 120 and 180 seconds of light exposure, respectively, resulting in emission intensity ([…]) versus time (t) curves. The above fluorescence spectra are tested at a magnetic field strength of 0, 10, 30, 70, 150, 250 mT, respectively.
The external magnetic field is supplied by Neodymium Iron Boron Permanent Magnet. Fluorescence spectra are tested using Edinburg FLS980 Steady State Transient Fluorescence Spectrometer with a detector of PMT R928 and a light source of 450 W ozone-free xenon lamp with excitation wavelength of λex=488 nm.
Under irradiation conditions, photosensitizer is excited to produce singlet oxygen ^1O2, and fluorescent probe SOSG reacts with ^1O2 to give endoperoxide with green fluorescence emission characteristic, with emission wavelength of 525 nm under excitation wavelength conditions of 488 nm. The reaction has a reaction rate of r.
In the present invention, through application of light and a magnetic field, the magnetic field effects (MFEs) is quantified by mfeR, the change rate of the reaction rate r, mfeR=(rB−r0)/r0×100%, where r0 is the reaction rate at a magnetic field strength of 0 mT and rB is the reaction rate at a magnetic field strength of B mT. Where the reaction rate (r) is proportional to the slope of the tangent of a curve (first derivative of the curve) of the emission intensity (I525 nm) versus time (t). Under magnetic field strengths of 0, 10, 35, 85, 180, 300 mT and from the time of starting to illuminate and place in magnetic field (the time recorded as 0), the first derivative of the I525 nm−t curve is 1, 1.05, 1.09, 0.99, 1.12, 1.14 (normalized).

For chlorin e6 [Ce6], the “first derivative of I525 nm−t curve at time 0 (normalized)” value (“first derivative … (normalized)” for short) (MF 0 mT) was 1, the “first derivative … (normalized)” value (MF 10 mT) was 1.09 and the “first derivative … (normalized)” value (MF 30 mT) was 1.33. The “first derivative … (normalized)” value (MF 70 mT) was 1.23, the “first derivative … (normalized)” value (MF 150 mT) was 1.16 and the “first derivative … (normalized)” value (MF 250 mT) was 1.12.

From patent US20250041624A1, “METHOD FOR ENHANCING ACTIVITY OF PHOTOSENSITIZER BY MAGNETIC FIELD” (PEKING UNIVERSITY, priority 2021, published 2025)
